This is an account of results in patent publication US20250302862A1, “SMALL RNA DRUG FOR INHIBITING ACTIVITY OF CANCER CELLS” (Institute of Basic Medical Sciences Chinese Academy of …, priority 2022, published 2025).

Series [1] deals with H460 cells. In words: Cell invasion (Matrigel Transwell). It counts as cell-based, human. To be noted: 100 nmol/L, 48 h. On the procedure: Matrigel (basement membrane matrix) was thawed on crushed ice one night before and diluted with serum-free medium to a final concentration of 200-300 ug/mL. 100 uL of the diluted Matrigel was added to each upper chamber, let stand at 37° C. for 30 min, and the supernatant was aspirated. H460 cells with a cell density of more than 90% in 10 cm^2 dishes were digested and resuspended with 1 mL of serum-free medium and counted. 100,000 cells (100 uL) were plated in the upper chamber, and complete medium with 10% FBS was added to the lower chamber of each chamber. Transfection was performed after 12 h, and the groups (3 wells per group) were divided as follows: • blank control group: 20 uL of opti-MEM • negative control group (NC group) and experimental group: • A. 10 uL of opti-MEM and 0.2 uL of iMax were mixed well for 5 min • B. 10 uL of opti-MEM and 0.5 uL of small RNA (final concentration 100 nmol/L) were mixed well • C. solution A and solution B were mixed well and let stand for 15 min, and then was added to each well at a 20 uL system • Note: 100 uL of nuclease-free water was added to 2 nmol of small RNA dry powder for dissolution at a storage concentration of 20 umol/L
After 48 h, the medium in upper and lower chambers was discarded. The cells were fixed with paraformaldehyde at room temperature for 15 min, stained with 0.1% crystal violet at room temperature for 15 min, and rinsed with PBS. The cells in the upper chamber were gently wiped off with cotton swabs, and the chamber was dried. A Leica inverted microscope DMi8 was turned on, the 5× objective lens was selected, the parameters were adjusted and the white balance was performed following the manual. Each chamber was photographed, followed by counting and statistic processing.
1) Matrigel basement membrane matrix was thawed on crushed ice one night before and diluted with serum-free medium to a final concentration of 200-300 ug/mL. […] H460 cells with a cell density of more than 90% in 10 cm^2 dishes were digested and resuspended with 1 mL of serum-free medium and counted. […]

Series [2] relates to H460 cells. Description: Apoptosis detection (Annexin V / PI). It counts as cell-based, human. To be noted: 100 nmol/L, 48 h. On the procedure: H460 cells with a cell density of more than 90% in 10 cm^2 dishes were plated in 12-well plates according to the cell growth rate, and transfected after 12 h, and the groups were divided as follows: • blank control group (4 wells): 200 uL of opti-MEM per well • negative control group (NC group) and experimental group (3 wells each): the system in each well was as follows • A. 100 uL of opti-MEM and 2 uL of iMax were mixed well for 5 min • B. 100 uL of opti-MEM and 5 uL of small RNA (final concentration 100 nmol/L) were mixed well • C. solution A and solution B were mixed well and let stand for 15 min, and then was added to each well at a 200 uL system • Note: 100 uL of nuclease-free water was added to 2 nmol of small RNA dry powder for dissolution at a storage concentration of 20 umol/L
The supernatant and cells were collected after 48 h and washed twice with pre-chilled PBS. The 4 tubes of cells in the blank control group were added respectively with: (1) 200 uL of 1× binding buffer; (2) 200 uL of 1× binding buffer and 5 uL of Annexin V stain; (3) 200 uL of 1× binding buffer and 5 uL of PI stain; (4) 200 uL of 1× binding buffer, 5 uL of Annexin V stain and 5 uL of PI stain. 200 uL of 1× binding buffer, 5 uL of Annexin V stain and 5 uL of PI stain were added to each tube of both the NC group and the experimental group. The mixture was mixed well and filtered through 300 mesh filters. The live cell population and the position of quadrant gate were selected according to the blank control group, and then the apoptosis of the NC group and the experimental group was detected. […]

Consider “HQi-sRNA-2: small RNA derived from Scutellaria baicalensis, sequence AUGGUUCGAUUCCGGAGAGGG (listed as RNA, chemistry not given here)”, for which, in series [1], the cell invasion result is listed as “inhibits”. Further, in series [2], the apoptosis entry is on record as “promotes”.

As for “MDM-sRNA-39: small RNA derived from Maytenus hookeri, sequence GGGAUUGUAGUUCAAUUGGUCAGAGCACC (listed as RNA, chemistry not given here)”, the cell invasion entry in series [1] is recorded as “inhibits”. The apoptosis result in series [2] is on record as “promotes”.

Turning to “MDM-sRNA-163: small RNA derived from Maytenus hookeri, sequence UGACUCUAGUCCGACUUUGUGAAAUGACU (listed as RNA, chemistry not given here)”, in series [1], the cell invasion entry is recorded as “inhibits”. Further, the apoptosis result in series [2] was “promotes”.
